Values quoted from earlier work as cited in patent US20090162442A1, “MULTI-PHASIC, NANO-STRUCTURED COMPOSITIONS CONTAINING A COMBINATION OF A FIBRATE AND A STATIN” (priority 2007, published 2009).

[1] = American Family Physician, 2002, Vol. 65, No. 6, page 1173

Row | Structure (SMILES) | absorbed (rate of absorption) [1] | bioavailable [1] | bioavailability under fed conditions (food interaction)
1 | CC(C)n1c(/C=C/C(O)CC(O)CC(=O)O)c(-c2ccc(F)cc2)c2ccccc21 (centres unmarked) [fluvastatin] | 98% | approximately 24% | decrease
2 | CC[C@H](C)C(=O)O[C@H]1C[C@@H](C)C=C2C=C[C@H](C)[C@H](CC[C@@H]3C[C@@H](O)CC(=O)O3)[C@H]21 [lovastatin] | about 30% | – | –
3 | CC[C@H](C)C(=O)O[C@H]1C[C@H](O)C=C2C=C[C@H](C)[C@H](CC[C@@H](O)C[C@@H](O)CC(=O)O)[C@H]21 [pravastatin] | – | – | decrease
